According to US6277859A, “Morphinan derivative and its pharmaceutical applications” (priority 1992, dated 2001):
pIC50: −log10 of the molar value. Counter-ions that a name gives are not always drawn.

What was measured:
μ receptor = target: T1, μ receptor (Mus musculus, UniProt P42866); assay: Ke with naloxone in isolated mouse vas deference preparation; format: cell-based, mouse (male ddy)
T1 construct: The isolated vas deference was filled with Krebes-Henseleit solution; from tissue; host or cells: isolated vas deferens of male ddy mouse
T1 sequence (P42866 whole entry): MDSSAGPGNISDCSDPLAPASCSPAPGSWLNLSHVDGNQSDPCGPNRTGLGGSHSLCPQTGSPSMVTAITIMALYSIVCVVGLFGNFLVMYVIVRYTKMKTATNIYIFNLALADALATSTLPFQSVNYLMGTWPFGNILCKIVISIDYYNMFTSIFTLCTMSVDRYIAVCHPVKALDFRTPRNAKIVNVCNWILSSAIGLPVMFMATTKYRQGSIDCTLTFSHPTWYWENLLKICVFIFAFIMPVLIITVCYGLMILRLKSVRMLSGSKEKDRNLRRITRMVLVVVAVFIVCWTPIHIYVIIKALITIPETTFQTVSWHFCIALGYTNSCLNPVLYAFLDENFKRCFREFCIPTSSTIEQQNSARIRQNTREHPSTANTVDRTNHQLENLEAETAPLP
Protocol: (§1) A male ddy mouse was used in this test. The isolated vas deference was filled with Krebes-Henseleit solution (NaCl 118 mM; KCl 4.7 mM; CaCl2 2.5 mM; KH2 PO4 1.1 mM; NaHCO3 25 mM; and glucose 10 mM) warmed to 37° C. and suspended in a Magnus tube ventilated with 5% carbon dioxide and 95% oxygen. Electrical stimulus was performed at 0.1 Hz for 5.0 ms by means of ring-shaped platinum electrodes located above and below. Tissue contractions were recorded on a polygraph using an isometric transducer.
(§2) Then after adequately washing with nutrient solution and the contraction reaction stabilized, naloxone, a μ agonist, NTI, a δ agonist, or norBNI, a κ […], were added and the test compound was again cumulatively added after roughly 20 minutes. The Ke value was calculated using the following calculation formula from the difference in the efficacies of both agonists.
(§3) Ke=[Conc. of added agonist]/(IC50 ratio-1)
(§4) IC50 ratio IC50 in the presence of agonist/IC50 in the absence of agonist

δ receptor = target: T2, δ receptor (Mus musculus, UniProt P32300); assay: Ke with NTI in isolated mouse vas deference preparation; format: cell-based, mouse (male ddy); conditions: for Ke NTI: NTI (δ)
T2 construct: The isolated vas deference was filled with Krebes-Henseleit solution; from tissue; host or cells: isolated vas deferens of male ddy mouse
T2 sequence (P32300 whole entry): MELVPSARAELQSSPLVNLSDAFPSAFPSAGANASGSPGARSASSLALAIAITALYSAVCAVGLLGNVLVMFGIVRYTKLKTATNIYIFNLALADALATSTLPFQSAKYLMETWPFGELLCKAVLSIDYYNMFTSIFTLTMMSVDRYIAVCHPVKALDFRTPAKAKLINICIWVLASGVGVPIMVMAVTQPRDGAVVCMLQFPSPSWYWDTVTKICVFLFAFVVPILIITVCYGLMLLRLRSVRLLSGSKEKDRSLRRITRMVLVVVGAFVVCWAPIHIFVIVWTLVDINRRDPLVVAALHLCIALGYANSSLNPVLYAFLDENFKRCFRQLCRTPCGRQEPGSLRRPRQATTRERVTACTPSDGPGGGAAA
Protocol: as §1, §2, §3, §4

κ receptor [1] = target: T3, κ receptor (Mus musculus, UniProt P33534); assay: Ke with norBNI in isolated mouse vas deference preparation; format: cell-based, mouse (male ddy); conditions: for Ke norBNI: norBNI (κ)
T3 construct: The isolated vas deference was filled with Krebes-Henseleit solution; from tissue; host or cells: isolated vas deferens of male ddy mouse
T3 sequence (P33534 whole entry): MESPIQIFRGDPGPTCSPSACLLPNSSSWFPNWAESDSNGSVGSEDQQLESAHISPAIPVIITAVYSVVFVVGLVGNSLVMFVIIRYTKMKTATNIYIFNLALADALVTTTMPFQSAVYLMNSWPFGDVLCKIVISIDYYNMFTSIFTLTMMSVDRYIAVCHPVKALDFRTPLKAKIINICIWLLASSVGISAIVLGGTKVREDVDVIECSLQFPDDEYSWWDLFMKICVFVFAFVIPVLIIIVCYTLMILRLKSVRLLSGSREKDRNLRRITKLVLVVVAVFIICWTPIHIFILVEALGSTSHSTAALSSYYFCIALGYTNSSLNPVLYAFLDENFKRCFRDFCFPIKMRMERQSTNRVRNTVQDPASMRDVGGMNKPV
Protocol: as §1, §2, §3, §4

ddY mice = assay: animal or person; format: in vivo, mouse (ddY); conditions: mouse, s.c. 15 min before i.p. 0.6% acetic acid
Protocol: Analgesic Activity Test Using the Acetic Acid-induced Writhing Method
5 week old ddY mice were used in this test. After intraperitoneal administration of 0.1 ml of 0.6% aqueous acetic acid per 10 g of body weight, the number of writhing reactions that occurred in 10 minutes starting 10 minutes after administration was evaluated for the indicator. The test drug was administered subcutaneously into the backs of the animals 15 minutes before administration of acetic acid.

Wistar rats = assay: Evaluation of diuretic action; format: in vivo, rat (male Wistar); conditions: sc, rat, s.c., urine output for 5 h after 20 ml/kg saline oral; for ED200: read-out: ED200, diuretic action (dose giving urine output of 200, non-dosed group = 100)
Protocol: Evaluation of Diuretic Action
7-8 week old male Wistar rats were used in this test after prohibiting from drinking water for 1 hour before testing. After discharging any urine accumulated in the bladder by gently stimulating the lower abdomens of the animals, the drug was administered subcutaneously. After 30 minutes, the animals were then forcibly given 20 ml/kg of physiological saline orally. The animals were then placed in metabolic cages immediately after administration of the drug (2 animals/cage) and urine output for 5 hours after loading with physiological saline was measured. Drug efficacy was expressed in the form of those doses resulting in urine outputs of 200 and 500, respectively, when the urine output of a non-dosed group was taken to be 100. Those doses were expressed as the ED200 and ED500 values, respectively.

[2] = test system: isolated mouse vas deference; assay: Opioid activity test using the isolated mouse vas deference preparation (electrically stimulated contractions); format: cell-based, mouse (male ddy); conditions: suppression of electrically stimulated contractions
Protocol: Opioid Activity Test Using the Isolated Mouse Vas Deference Preparation
as §1, §2

κ receptor [3] = target: T4, κ receptor (Cavia porcellus, UniProt P41144); assay: Ke with norBNI in isolated guinea pig preparation; format: cell-based, guinea pig (male Hartley); conditions: guinea pig ileum
T4 construct: from tissue; host or cells: longitudinal muscle of the ileum of male Hartley guinea pig
T4 sequence (P41144 whole entry): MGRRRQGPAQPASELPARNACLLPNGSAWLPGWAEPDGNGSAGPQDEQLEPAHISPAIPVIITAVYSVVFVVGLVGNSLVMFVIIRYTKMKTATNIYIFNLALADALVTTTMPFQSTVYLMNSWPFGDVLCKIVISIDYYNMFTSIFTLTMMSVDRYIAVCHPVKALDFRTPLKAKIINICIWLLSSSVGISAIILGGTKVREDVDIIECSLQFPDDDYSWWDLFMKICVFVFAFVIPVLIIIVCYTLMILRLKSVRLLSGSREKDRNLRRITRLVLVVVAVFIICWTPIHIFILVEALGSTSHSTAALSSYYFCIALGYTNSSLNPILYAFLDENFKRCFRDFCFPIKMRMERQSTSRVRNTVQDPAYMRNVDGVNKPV
Protocol: A male Hartley guinea pig was used in this test.
After sacrificing the guinea pig and extracting the ileum, the lumen was washed with nutrient solution and only the longitudinal muscle was isolated. This longitudinal muscle was filled with Krebes-Henseleit solution (NaCl 118 mM; KCl 4.7 mM; CaCl2 2.5 mM; KH2 PO4 1.2 mM; NaHCO3 25 mM; MgSO4 1.2 mM and glucose 10 mM) warmed to 37° C. and suspended in a Magnus tube ventilated with 5% carbon dioxide and 95% oxygen. Electrical stimulus was performed at 0.1 Hz for 5.0 ms by means of ring-shaped platinum electrodes located above and below. Tissue contractions were recorded on a polygraph using an isometric transducer.
as §2, with “antagonist,” for “agonist, NTI, a δ agonist,”
Ke=[Conc. of added antagonist]/(IC50 ratio-1)
IC50 ratio=IC50 in the presence of antagonist/IC50 in the absence of antagonist

Compound | Ke Naloxone (μ receptor) | Ke NTI (δ receptor) | selective agonist for κ receptors (in words) (κ receptor [1]) | Ke norBNI (κ receptor [1]) | ED50, acetic acid writhing (ddY mice) | ED200 (Wistar rats) | pIC50 [2] | Ke norBNI (κ receptor [3]) | selective agonist for δ receptors (in words) (δ receptor) | ED500 (Wistar rats; read-out: ED500, diuretic action (dose giving urine output of 500, non-dosed group = 100)) | ED50 (ddY mice; sc, read-out: ED50, acetic acid writhing)
CCCCOC(=O)N(C)[C@H]1CC[C@@]2(O)[C@H]3Cc4ccc(O)c5c4[C@@]2(CCN3CC2CC2)[C@H]1O5 [Compound 47, 17-cyclopropylmethyl-4,5α-epoxy-3,14β-dihydroxy-6α-(N-methylbutyroxycarbamido)morphinan.tartrate] | 63.5 nM | 10.4 nM | selective agonists for κ receptors | 0.140 nM | 0.52 µg/kg | 1.6 µg/kg |  |  |  |  | 
CC(=O)Oc1ccc2c3c1O[C@H]1[C@H](N(C)C(=O)/C=C/c4ccccc4)CC[C@@]4(O)[C@@H](C2)N(CC2CC2)CC[C@]314 [Compound 140, 17-Cyclopropylmethyl-3-acetoxy-14β-hydroxy-4,5α-epoxy-6β-(N-methylcinnamamido)morphinan.tartrate] | 320 nM | 261 nM | selective agonists for κ receptors | 1.06 nM | 3.4 µg/kg |  |  |  |  |  | 
Cc1cccc(/C=C/C(=O)N(C)[C@@H]2CC[C@@]3(O)[C@H]4Cc5ccc(O)c6c5[C@@]3(CCN4CC3CC3)[C@H]2O6)c1 [Compound 69, 17-cyclopropylmethyl-3,14β-dihydroxy-4,5α-epoxy-6β-(N-methyl-3-methylcinnamamido)morphinan.hydrochloride] | 1780 nM | 64.5 nM | selective agonists for κ receptors | 1.95 nM |  |  | 9.49 |  |  |  | 
CN(C(=O)/C=C/c1ccccc1)[C@@H]1CC[C@@]2(O)[C@H]3Cc4ccc(O)c5c4[C@@]2(CCN3CC2CC2)[C@H]1O5 [Compound 99, 17-cyclopropylmethyl-3,14β-dihydroxy-4,5α-epoxy-6β-(N-methylcinnamamido)morphinan.hydrochloride] | 94.5 nM |  | selective agonists for κ receptors | 0.652 nM | 1.8 µg/kg | 1.1 µg/kg |  |  |  |  | 
CN(C(=O)Cc1ccc(Cl)c(Cl)c1)[C@H]1CC[C@@]2(O)[C@H]3Cc4ccc(O)c5c4[C@@]2(CCN3CC2CC2)[C@H]1O5 [Compound 1, 17-cyclopropylmethyl-4,5α-epoxy-3,14β-dihydroxy-6α-(N-methyl-3,4-dichlorophenylacetamido)morphinan.hydrochloride] | 53 nM | 17.3 nM | selective agonists for κ receptors | 0.548 nM |  | 2.7 µg/kg |  | 0.16 nM |  |  | 
CN(C(=O)/C=C/C1CCCCC1)[C@@H]1CC[C@@]2(O)[C@H]3Cc4ccc(O)c5c4[C@@]2(CCN3CC2CC2)[C@H]1O5 [Compound 68, 17-cyclopropylmethyl-3,14,β-dihydroxy-4,5α-epoxy-6β-(N-methyl-3-cyclohexylacrylamido) morphinan.tartrate] | 5710 nM | 143 nM | selective agonists for κ receptors | 1.08 nM |  | 1.6 µg/kg | 9.34 |  |  |  | 
CN(C(=O)/C=C/c1cccc(F)c1)[C@H]1CC[C@@]2(O)[C@H]3Cc4ccc(O)c5c4[C@@]2(CCN3CC2CC2)[C@H]1O5 [Compound 96, 17-cyclopropylmethyl-3,14β-dihydroxy-4,5α-epoxy-6α-(N-methyl-3-fluorocinnamamido)morphinan.tartrate] | 32.5 nM | 1.61 nM |  | 4.21 nM | 0.86 µg/kg | 1.3 µg/kg |  |  | selective agonists for δ receptors |  | 
CN(C(=O)OCc1ccccc1)[C@H]1CC[C@@]2(O)[C@H]3Cc4ccc(O)c5c4[C@@]2(CCN3CC2CC2)[C@H]1O5 [Compound 42, 17-cyclopropylmethyl-3,14β-dihydroxy-4,5α-epoxy-6α-(N-methylbenzyloxycarbamido)morphinan.tartrate] | 186 nM | 63.5 nM | selective agonists for κ receptors | 0.905 nM | 1.36 µg/kg | 0.85 µg/kg |  |  |  | 6.1 µg/kg | 
CN(C(=O)CSc1ccccc1)[C@H]1CC[C@@]2(O)[C@H]3Cc4ccc(O)c5c4[C@@]2(CCN3CC2CC2)[C@H]1O5 [Compound 45, 17-cyclopropylmethyl-4,5α-epoxy-3,14,β-dihydroxy-6α-(N-methylthiophenoxyacetamido)morphinan.tartrate] | 26.5 nM | 135 nM | selective agonists for κ receptors | 0.416 nM | 3.8 µg/kg | 8.1 µg/kg |  |  |  |  | 
CN(C(=O)CC(=O)c1ccccc1)[C@H]1CC[C@@]2(O)[C@H]3Cc4ccc(O)c5c4[C@@]2(CCN3CC2CC2)[C@H]1O5 [Compound 98, 17-cyclopropylmethyl-3,14β-dihydroxy-4,5α-epoxy-6α-(N-methylbenzoylacetamido)morphinan.tartrate] |  |  | selective agonists for κ receptors | 1.35 nM | 6.8 µg/kg | 6.5 µg/kg |  |  |  |  | 
COc1cccc(/C=C/C(=O)N(C)[C@@H]2CC[C@@]3(O)[C@H]4Cc5ccc(O)c6c5[C@@]3(CCN4CC3CC3)[C@H]2O6)c1 [Compound 63] | 60.9 nM | 96.9 nM | selective agonists for κ receptors | 1.60 nM |  | 3.8 µg/kg | 9.13 |  |  |  | 1.1 µg/kg
